# Measured values from PMC11945487 (Viruses, 2025).
# Legend:
# HEK293 cells = experiment: MTT cytotoxicity assay; format: cell-based, human; details: HEK293, 24 h, 0 to 100 µM
# SARS-CoV-2 M^pro = SARS-CoV-2 M^pro (Severe acute respiratory syndrome coronavirus 2, UniProt P0DTD1); format: binding; details: modified Stern–Volmer plot
# [1] = ref [41]; cited from earlier work
SMILES,cytotoxicity / cell viability (HEK293 cells),KSV (SARS-CoV-2 M^pro) [M⁻¹],number of binding sites (SARS-CoV-2 M^pro),solubility in organic solvents [1]
O=c1c(O)c(-c2ccc(O)c(O)c2)oc2cc(O)cc(O)c12 [Quercetin],consistent and high cell viability,–,–,–
"COc1cc2ccc(=O)oc2cc1O [Scopoletin, 6-methoxy-7-hydrocoumarian]",maintained acceptable cell viability,932000,one,dissolves in organic solvents such as methanol and chloroform
